Measurements reported in US20200197409A1, “HEPATITIS B VIRUS SURFACE ANTIGEN INHIBITOR” (FUJIAN COSUNTER PHARMACEUTICAL CO., LTD., priority 2017, published 2020).

Columns and labels:
[1] = system: HBV; experiment: Anti-HBV activity on the hepatitis B virus mouse model (AAV-HBV); assay type: in vivo, C57BL/6 mice; conditions: for HBsAg content in the plasma of the mice: PO
Procedure: The AAV vector-mediated HBV infected mouse model is a fast and efficient HBV model. Using the high hepatotropism of the AAV vector, the recombinant adeno-associated type 8 virus carrying 1.3 copies of the HBV genome (rAAV8-1.3HBV) is injected into the tail vein of mice, which can efficiently introduce the carried 1.3 copy HBV genome into hepatocytes. Due to the characteristics of the AAV viral vector, the vector mediated by it can express for a long time. The AAV/HBV model can continuously replicate HBV DNA and express HBsAg and HBeAg in the liver of the mice.
The anti-HBV efficacy of the test compound in vivo was evaluated by determining the content of HBsAg in the serum of the mice after treatment with the test compound on AAV/HBV mouse mode.
C57BL/6 mice, 10% HP-f-CD as vehicle, reference compound TDF (Tenofovir), test compound, recombinant virus rAAVS-1.3HBV, main reagents of the experiment including QIAamp96 DNA kit and TaqMan® Universal PCR Master Mix, Hepatitis B Virus Surface Antigen Detection Kit, instruments including: centrifuge (Beckman Allegra X-15R), tissue grinder (QIAGEN-Tissue lyser II) and spectrophotometer (Thermo-NANODROP 1000).
a) All mice were orally administered on the 28th day after the virus injection, and the day was set as day 0. Submaxillary blood of all mice was collected for serum collection before administration. The mice were administered once a day for four weeks.
b) Submaxillary blood of all mice was collected for serum collection twice a week, the volume of the blood collected each time was approximately 100 μL.
c) On the 28th day, all mice were euthanized and the blood was collected from the heart for serum collection.
The content of HBsAg in the serum of the mice was determined by ELISA. The experimental procedure refers to the specification of HBsAg ELISA kit.
a) The anti-HBV activity of the test compound on AAV/HBV mice model was evaluated by determining the content of HBsAg in the plasma of the mice.

[2] = Plasma protein binding rate, CD-1 mouse plasma; assay type: in vitro ADME; conditions: plasma of CD-1 mouse, dialysis 4 hours at 37° C.
Procedure: (§1) The protein binding rate of Embodiment 6 in the plasma of human, CD-1 mouse and SD rat was determined, 796 μL of blank plasma was taken from human, CD-1 mice and SD rats, and 4 μL of test compound working solution (400 μM) or warfarin working solution (400 μM) was added to achieve a final concentration of the test compound and the warfarin in plasma samples of 2 μM. The samples were mixed thoroughly. The final concentration of organic phase DMSO was 0.5%, 50 μL of the test compound and warfarin plasma sample were transferred into sample receiving plates (three parallels), and a relative volume of corresponding blank plasma or buffer was immediately added, ensuring that the final volume of each sample well was 100 μL, and the volume ratio of plasma to dialysis buffer was 1:1. 400 μL of stop solution was added to these samples, which was used as a T0 sample for the determination of recovery and stability. […] The protein binding rate and the recovery rate were calculated by the formulas: % Protein unbinding rate (%)=100*Drug concentration through the dialysis membrane/drug concentration not through the dialysate: Protein binding rate (%)=100-% protein unbinding rate: % Recovery=100*(Drug concentration through the dialysis membrane+Drug concentration not through the dialysate)/Total drug concentration before undialysis. Protein binding rate and recovery rate were calculated.

[3] = Single dose neurotoxicity test on rats (functional observation combination test, FOB); assay type: in vivo; conditions: 24 hours after single intragastric dose of 1000 mg/kg and 300 mg/kg, male SD rats
Procedure: In this experiment, SD rats were intragastrically administrated with RG7834 and Embodiment 6 in a single dose, and the potential neurobehavioral toxicities to SD rats were evaluated by functional observation combination test (FOB). A total of 25 SD male rats were used in this experiment. At the start of the administration, the animals were about 7 to 8 weeks old, males weighed between 225.50 and 285.70 g, and […]. […] The animals in the control group were administered with the menstruum. All animals were administered at a volume of 10 mL/kg, and subjected to the FOB test.

[4] = Plasma protein binding rate, SD rat plasma; assay type: in vitro ADME; conditions: plasma of SD rat, dialysis 4 hours at 37° C.
Procedure: as §1

In the case of `COCCCOc1cc2c(cc1OC)-c1cc(=O)c(C(=O)O)cn1[C@H](C(C)(C)C)CO2` [Embodiment 6], the “effect on the content of HBsAg on the AAV/HBV mouse model (in words)” value ([1]; 3, 10, 30 mg/kg PO once a day for four weeks) is reported as “significantly reduce”, the “HBsAg content in the plasma of the mice” value ([1]; day 4, 3 mg/kg) is reported as 3.68 IU/mL and the “HBsAg content in the plasma of the mice” value ([1]; day 4, 10 mg/kg) is reported as 3.56 IU/mL. For the same compound, the “HBsAg content in the plasma of the mice” value ([1]; day 4, 30 mg/kg) was 3.38 IU/mL, the “HBsAg content in the plasma of the mice” value ([1]; day 7, 3 mg/kg) was 3.70 IU/mL and the “HBsAg content in the plasma of the mice” value ([1]; day 7, 10 mg/kg) was 3.69 IU/mL. For the same compound, the “HBsAg content in the plasma of the mice” value ([1]; day 7, 30 mg/kg) was 3.44 IU/mL, the “HBsAg content in the plasma of the mice” value ([1]; day 11, 3 mg/kg) was 3.76 IU/mL and the “HBsAg content in the plasma of the mice” value ([1]; day 11, 10 mg/kg) was 3.92 IU/mL. For the same compound, the “HBsAg content in the plasma of the mice” value ([1]; day 11, 30 mg/kg) was 3.64 IU/mL, the “HBsAg content in the plasma of the mice” value ([1]; day 14, 3 mg/kg) was 3.70 IU/mL and the “HBsAg content in the plasma of the mice” value ([1]; day 14, 10 mg/kg) was 3.61 IU/mL. For the same compound, the “HBsAg content in the plasma of the mice” value ([1]; day 14, 30 mg/kg) was 3.40 IU/mL, the “HBsAg content in the plasma of the mice” value ([1]; day 18, 3 mg/kg) was 3.85 IU/mL and the “HBsAg content in the plasma of the mice” value ([1]; day 18, 10 mg/kg) was 3.90 IU/mL. The “HBsAg content in the plasma of the mice” value ([1]; day 18, 30 mg/kg) was 3.55 IU/mL, the “HBsAg content in the plasma of the mice” value ([1]; day 21, 3 mg/kg) was 3.78 IU/mL and the “HBsAg content in the plasma of the mice” value ([1]; day 21, 10 mg/kg) was 3.75 IU/mL. The “HBsAg content in the plasma of the mice” value ([1]; day 21, 30 mg/kg) was 3.46 IU/mL, the “HBsAg content in the plasma of the mice” value ([1]; day 25, 3 mg/kg) was 3.76 IU/mL and the “HBsAg content in the plasma of the mice” value ([1]; day 25, 10 mg/kg) was 3.83 IU/mL. The “HBsAg content in the plasma of the mice” value ([1]; day 25, 30 mg/kg) was 3.37 IU/mL, the “HBsAg content in the plasma of the mice” value ([1]; day 28, 3 mg/kg) was 3.96 IU/mL and the “HBsAg content in the plasma of the mice” value ([1]; day 28, 10 mg/kg) was 3.87 IU/mL. The “HBsAg content in the plasma of the mice” value ([1]; day 28, 30 mg/kg) was 3.53 IU/mL, the “HBsAg content in the plasma of the mice” value ([1]; day −1, 3 mg/kg) was 4.54 IU/mL and the “HBsAg content in the plasma of the mice” value ([1]; day −1, 10 mg/kg) was 4.51 IU/mL. For the same compound, the “HBsAg content in the plasma of the mice” value ([1]; day −1, 30 mg/kg) was 4.48 IU/mL, the “tolerance of the mice during the course of treatment” value ([1]; once a day for four weeks) was “good tolerance” and the “changes of the body weight of the mice” value ([1]; once a day for four weeks, FIG. 3) was “better than RG7834”. For the same compound, the fraction unbound at 4 h, 2 μM [2] was 0.498, the “magnification of the pupil associated with the test compound” value [3] was “did not appear” and the fraction unbound at 4 h, 2 μM [4] was 0.406.
